Experimental data from patent US11180462B2, “Microbiocidal oxadiazole derivatives” (SYNGENTA PARTICIPATIONS AG, priority 2015, dated 2021).

Assays:
Phakopsora Pachyrhizi = test: Fungicidal activity against Phakopsora pachyrhizi / soybean / leaf disc preventative (Asian soybean rust); assay type: in vivo; conditions: foliar, 200 ppm in the applied formulation, soybean leaf disks, compared to untreated control leaf disks, read-out: disease control
In short: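 Scored 12 to 14 days post-application as percent control relative to untreated check discs, rust spores were sprayed under the disc one day after compound treatment. Incubation: 20°C, 75% rh, first 24–36 h in darkness, then 12 h daily light; discs kept on water agar.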

[1] = system: Glomerella lagenarium (Colletotrichum lagenarium); test: Fungicidal activity against Glomerella lagenarium (Colletotrichum lagenarium) liquid culture / cucumber / preventative (anthracnose); assay type: cell-based; conditions: Colletotrichum orbiculare; 20 ppm in the applied formulation; liquid culture (PDB), growth inhibition measured photometrically after 3 to 4 days; compared to untreated control; read-out: disease control
In short: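 Percent activity against the untreated check was derived from photometric growth measurements made 2 to 7 days after conidia in potato dextrose broth were combined with compound at 20 ppm. Cultures were kept dark at 24 °C and 96% humidity.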

[2] = system: Puccinia recondita f. Sp. Tritici; test: Fungicidal activity against Puccinia recondita f. sp. tritici / wheat / leaf disc curative (brown rust); assay type: in vivo; conditions: foliar, 24 h, 200 ppm in the applied formulation, wheat leaf segments, curative (applied 1 day after inoculation), compared to untreated control leaf disks, read-out: disease control
In short: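 Segments of wheat cv. Kanzler were laid on agar and inoculated with a spore suspension of the rust, then held in darkness at 19° C and 75% relative humidity. One day later the water-diluted formulated compound was applied, with incubation continued under a 12 h light/dark cycle.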

[3] = system: Puccinia recondita f. Sp. Tritici; test: Fungicidal activity against Puccinia recondita f. sp. tritici / wheat / leaf disc preventative (brown rust); assay type: in vivo; conditions: foliar, 200 ppm in the applied formulation, wheat leaf segments, preventative, compared to untreated control leaf disks, read-out: disease control
In short: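 Percent disease control relative to untreated check segments is scored once disease develops, 7 to 9 days after application. Wheat cv. Kanzler segments receive compound spray (200 ppm in formulation) one day before spore inoculation, then sit at 19° C. and 75% rh under 12 h light/12 h dark.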

CN(Cc1ccc(-c2noc(C(F)(F)F)n2)cc1)C(=O)C1CC1(F)F (centres unmarked) [Compound 1.523, 2,2-difluoro-N-methyl-N-[[4-[5-(trifluoromethyl)-1,2,4-oxadiazol-3-yl]phenyl]methyl]-cyclopropane-carboxamide]
≥ 80%: pest or weed control at 200 ppm (Phakopsora Pachyrhizi) | inhibition of growth at 20 ppm [1] | pest or weed control at 200 ppm [2] | pest or weed control at 200 ppm [3]

CCCC(=O)N(C)Cc1ccc(-c2noc(C(F)(F)F)n2)cc1 [Compound 1.524, N-methyl-N-[[4-[5-(trifluoromethyl)-1,2,4-oxadiazol-3-yl]phenyl]methyl]-butanamide]
≥ 80%: pest or weed control at 200 ppm (Phakopsora Pachyrhizi) | inhibition of growth at 20 ppm [1] | pest or weed control at 200 ppm [2] | pest or weed control at 200 ppm [3]

CCC(C)C(=O)N(C)Cc1ccc(-c2noc(C(F)(F)F)n2)cc1 (centres unmarked) [Compound 1.525, N.2-dimethyl-N-[[4-[5-(trifluoromethyl)-1,2,4-oxadiazol-3-yl]phenyl]methyl]-butanamide]
≥ 80%: pest or weed control at 200 ppm (Phakopsora Pachyrhizi) | inhibition of growth at 20 ppm [1] | pest or weed control at 200 ppm [2] | pest or weed control at 200 ppm [3]

COCCCC(=O)N(C)Cc1ccc(-c2noc(C(F)(F)F)n2)cc1 [Compound 1.526, 4-methoxy-N-methyl-N-[[4-[5-(trifluoromethyl)-1,2,4-oxadiazol-3-yl]phenyl]methyl]-butanamide]
≥ 80%: pest or weed control at 200 ppm (Phakopsora Pachyrhizi) | inhibition of growth at 20 ppm [1] | pest or weed control at 200 ppm [2] | pest or weed control at 200 ppm [3]

CN(Cc1ccc(-c2noc(C(F)(F)F)n2)cc1)C(=O)C1(C)COC1 [Compound 1.527, N,3-dimethyl-N-[[4-[5-(trifluoromethyl)-1,2,4-oxadiazol-3-yl]phenyl]methyl]-oxetane-3-carboxamide]
≥ 80%: pest or weed control at 200 ppm (Phakopsora Pachyrhizi) | inhibition of growth at 20 ppm [1] | pest or weed control at 200 ppm [2] | pest or weed control at 200 ppm [3]

CN(Cc1ccc(-c2noc(C(F)(F)F)n2)cc1)C(=O)C1CCCO1 (centres unmarked) [Compound 1.528, N-methyl-N-[[4-[5-(trifluoromethyl)-1,2,4-oxadiazol-3-yl]phenyl]methyl]-tetrahydrofuran-2-carboxamide]
≥ 80%: pest or weed control at 200 ppm (Phakopsora Pachyrhizi) | inhibition of growth at 20 ppm [1] | pest or weed control at 200 ppm [2] | pest or weed control at 200 ppm [3]

CN(Cc1ccc(-c2noc(C(F)(F)F)n2)cc1)C(=O)C1CC1F (centres unmarked) [Compound 1.529, 2-fluoro-N-methyl-N-[[4-[5-(trifluoromethyl)-1,2,4-oxadiazol-3-yl]phenyl]methyl]-cyclopropane-carboxamide]
≥ 80%: pest or weed control at 200 ppm (Phakopsora Pachyrhizi) | inhibition of growth at 20 ppm [1] | pest or weed control at 200 ppm [2] | pest or weed control at 200 ppm [3]

CN(Cc1ccc(-c2noc(C(F)(F)F)n2)cc1)C(=O)C1OCCO1 [Compound 1.531, N-methyl-N-[[4-[5-(trifluoromethyl)-1,2,4-oxadiazol-3-yl]phenyl]methyl]-1,3-dioxolane-2-carboxamide]
≥ 80%: pest or weed control at 200 ppm (Phakopsora Pachyrhizi) | inhibition of growth at 20 ppm [1] | pest or weed control at 200 ppm [2] | pest or weed control at 200 ppm [3]

CN(Cc1ccc(-c2noc(C(F)(F)F)n2)cc1)C(=O)C1CC1 [Compound 1.532, N-methyl-N-[[4-[5-(trifluoromethyl)-1,2,4-oxadiazol-3-yl]phenyl]methyl]-cyclopropane-carboxamide]
≥ 80%: pest or weed control at 200 ppm (Phakopsora Pachyrhizi) | inhibition of growth at 20 ppm [1] | pest or weed control at 200 ppm [2] | pest or weed control at 200 ppm [3]

CON(Cc1ccc(-c2noc(C(F)(F)F)n2)cc1F)C(=O)C1CCCO1 (centres unmarked) [Compound 1.563, N-[[2-fluoro-4-[5-(trifluoromethyl)-1,2,4-oxadiazol-3-yl]phenyl]methyl]-N-methoxy-tetrahydrofuran-2-carboxamide]
≥ 80%: pest or weed control at 200 ppm (Phakopsora Pachyrhizi) | inhibition of growth at 20 ppm [1] | pest or weed control at 200 ppm [2] | pest or weed control at 200 ppm [3]

CCON(Cc1ccc(-c2noc(C(F)(F)F)n2)cc1)C(=O)C1CC1 [Compound 1.564, N-ethoxy-N-[[4-[5-(trifluoromethyl)-1,2,4-oxadiazol-3-yl]phenyl]methyl]-cyclopropane-carboxamide]
≥ 80%: pest or weed control at 200 ppm (Phakopsora Pachyrhizi) | inhibition of growth at 20 ppm [1] | pest or weed control at 200 ppm [2] | pest or weed control at 200 ppm [3]

CON(Cc1ccc(-c2noc(C(F)(F)F)n2)cc1F)C(=O)C1CC1 [Compound 1.566, N-[[2-fluoro-4-[5-(trifluoromethyl)-1,2,4-oxadiazol-3-yl]phenyl]methyl]-N-methoxy-cyclopropane-carboxamide]
≥ 80%: pest or weed control at 200 ppm (Phakopsora Pachyrhizi) | inhibition of growth at 20 ppm [1] | pest or weed control at 200 ppm [2] | pest or weed control at 200 ppm [3]

CCON(Cc1ccc(-c2noc(C(F)(F)F)n2)cc1)C(=O)COC [Compound 1.567, N-ethoxy-2-methoxy-N-[[4-[5-(trifluoromethyl)-1,2,4-oxadiazol-3-yl]phenyl]methyl]-acetamide]
≥ 80%: pest or weed control at 200 ppm (Phakopsora Pachyrhizi) | inhibition of growth at 20 ppm [1] | pest or weed control at 200 ppm [2] | pest or weed control at 200 ppm [3]

CON(Cc1ccc(-c2noc(C(F)(F)F)n2)cn1)C(=O)C1CCCO1 (centres unmarked) [Compound 1.569, N-methoxy-N-[[5-[5-(trifiuoromethyl)-1,2,4-oxadiazol-3-yl]-2-pyridyl]methyl]-tetrahydrofuran-2-carboxamide]
≥ 80%: pest or weed control at 200 ppm (Phakopsora Pachyrhizi) | inhibition of growth at 20 ppm [1] | pest or weed control at 200 ppm [2] | pest or weed control at 200 ppm [3]

CON(Cc1ccc(-c2noc(C(F)(F)F)n2)cn1)C(=O)C1CC1 [Compound 1.570, N-methoxy-N-[[5-[5-(trifluoromethyl)-1,2,4-oxadiazol-3-yl]-2-pyridyl]methyl]cyclopropanecarboxamide]
≥ 80%: pest or weed control at 200 ppm (Phakopsora Pachyrhizi) | inhibition of growth at 20 ppm [1] | pest or weed control at 200 ppm [2] | pest or weed control at 200 ppm [3]

CCCN(Cc1ccc(-c2noc(C(F)(F)F)n2)cc1)C(=O)CC [Compound 1.573, N-propyl-N-[[4-[5-(trifluoromethyl)-1,2,4-oxadiazol-3-yl]phenyl]methyl]-propanamide]
≥ 80%: pest or weed control at 200 ppm (Phakopsora Pachyrhizi) | inhibition of growth at 20 ppm [1] | pest or weed control at 200 ppm [2] | pest or weed control at 200 ppm [3]

CCCN(Cc1ccc(-c2noc(C(F)(F)F)n2)cc1)C(=O)C1CC1 [Compound 1.574, N-propyl-N-[[4-[5-(trifluoromethyl)-1,2,4-oxadiazol-3-yl]phenyl]methyl]-cyclopropane-carboxamide]
≥ 80%: pest or weed control at 200 ppm (Phakopsora Pachyrhizi) | inhibition of growth at 20 ppm [1] | pest or weed control at 200 ppm [2] | pest or weed control at 200 ppm [3]

CCCN(Cc1ccc(-c2noc(C(F)(F)F)n2)cc1)C(=O)COC [Compound 1.575, 2-methoxy-N-propyl-N-[[4-[5-(trifluoromethyl)-1,2,4-oxadiazol-3-yl]phenyl]methyl]-acetamide]
≥ 80%: pest or weed control at 200 ppm (Phakopsora Pachyrhizi) | inhibition of growth at 20 ppm [1] | pest or weed control at 200 ppm [2] | pest or weed control at 200 ppm [3]

CON(Cc1ccc(-c2noc(C(F)(F)F)n2)c(F)c1F)C(=O)C1CCCO1 (centres unmarked) [Compound 1.577, N-[[2,3-difluoro-4-[5-(trifluoromethyl)-1,2,4-oxadiazol-3-yl]phenyl]methyl]-N-methoxy-tetrahydrofuran-2-carboxamide]
≥ 80%: pest or weed control at 200 ppm (Phakopsora Pachyrhizi) | inhibition of growth at 20 ppm [1] | pest or weed control at 200 ppm [2] | pest or weed control at 200 ppm [3]

CON(Cc1ccc(-c2noc(C(F)(F)F)n2)c(F)c1)C(=O)C1CCCO1 (centres unmarked) [Compound 1.578, N-[[3-fluoro-4-[5-(trifluoromethyl)-1,2,4-oxadiazol-3-yl]phenyl]methyl]-N-methoxy-tetrahydrofuran-2-carboxamide]
≥ 80%: pest or weed control at 200 ppm (Phakopsora Pachyrhizi) | inhibition of growth at 20 ppm [1] | pest or weed control at 200 ppm [2] | pest or weed control at 200 ppm [3]

CON(Cc1ccc(-c2noc(C(F)(F)F)n2)c(F)c1)C(=O)C1CC1 [Compound 1.579, N-[[3-fluoro-4-[5-(trifluoromethyl)-1,2,4-oxadiazol-3-yl]phenyl]methyl]-N-methoxy-cyclopropane-carboxamide]
≥ 80%: pest or weed control at 200 ppm (Phakopsora Pachyrhizi) | inhibition of growth at 20 ppm [1] | pest or weed control at 200 ppm [2] | pest or weed control at 200 ppm [3]

CCC(=O)N(Cc1ccc(-c2noc(C(F)(F)F)n2)c(F)c1)OC [Compound 1.580, N-[[3-fluoro-4-[5-(trifluoromethyl)-1,2,4-oxadiazol-3-yl]phenyl]methyl]-N-methoxy-propanamide]
≥ 80%: pest or weed control at 200 ppm (Phakopsora Pachyrhizi) | inhibition of growth at 20 ppm [1] | pest or weed control at 200 ppm [2] | pest or weed control at 200 ppm [3]

CCC(=O)N(Cc1ccc(-c2noc(C(F)(F)F)n2)cc1)CC(F)(F)F [Compound 1.582, N-(2,2,2-trifluoroethyl)-N-[[4-[5-(trifluoromethyl)-1,2,4-oxadiazol-3-yl]phenyl]methyl]-propanamide]
≥ 80%: pest or weed control at 200 ppm (Phakopsora Pachyrhizi) | inhibition of growth at 20 ppm [1] | pest or weed control at 200 ppm [2] | pest or weed control at 200 ppm [3]
